Patent publication US20180071280A1, “MODULATORS OF CELL DEATH PROCESSES” (URIFER LTD., priority 2015, published 2018)
Entries after “also recorded” stand apart in the source; their conditions may differ. Counter-ions that a name gives are not always drawn. Like-named read-outs stand apart in the source and are kept apart here.

How the values were obtained:
[1] = tested on: normal human fibroblasts (Hfb); experiment: MultiTox-Fluor cytotoxicity assay in normal human fibroblasts; format: cell-based
Procedure: (§1) Cell lines (HCT116, ht29, Rko, Hep3B, SW48, SW620, MDA-MB-231, PANC-1, su.86.86, Hfb) were obtained from the American Type Culture Collection (ATCC). Cell type authentication was carried out by microscope and DNA profiles using short tandem repeat analysis. Cells were grown in Minimum Essential Medium (MEM) containing 10% heat-inactivated Fetal Bovine Serum (FBS) or in Dulbecco's Modified Eagle's Medium (DMEM) containing 10% FBS, where specified, at 37° C. with 5% CO2. In general, the in-vitro experiments were carried out with 2. μM 0260 added into the growth medium. Dose response experiments included increasing 0260 concentrations. Cell death levels were determined using the MultiTox-Fluor Multiplex Cytotoxicity Assay (G9201, Promega, USA). In brief, 10,000 cells were seeded in black bottom 96 wells plate and were allowed to attach to the plate bottom for 16 h before the administration of various 0260 concentration in each well. Cell death levels were determined according to the manufacturer's protocol.
(§2) Cells death level was determined using the MultiTox-Fluor Multiplex Cytotoxicity Assay (G9201, Promega, USA) according to the manufacturer's protocol.

[2] = tested on: Hfb; experiment: Cellular ATP level (HPLC) in Hfb; format: cell-based, human; conditions: 12 hours
Procedure: Quantification of intracellular ATP was carried out using HPLC as previously described.
Cells were suspended in 400 μl cold 0.4M perchloric acid solution, incubated on ice for 15 min, centrifuged at 12,000×g, neutralized with 4M K2CO3 to pH 7.5, incubated for 15 min on ice and concentrated (10,000×g). Chromatographic analyses were performed using Hitachi Elite LaChrom system at 30° C. applying supernatants to SUPELCOSIL™ LC-18-S HPLC Column (5 μm particle size, L×I.D. 25 cm×2.1 mm), flow rate 0.2 mL/min under isocratic elution conditions (50 mM potassium phosphate, 100 mM triethylamine, pH 6.5 (adjusted with phosphoric acid)):Acetonitrile (98.5:1.5)). Each analysis cycle was set to 30 min, chromatographic flow was monitored at 260 nm and integrated using EZChrom Elite Software.

[3] = tested on: SW620 CC xenografts; experiment: SW620 CC xenografts in nude mice; format: in vivo
Procedure: All animal experiments were performed according to the guidelines of the Institutional Animal Care and Use Committee of the Bar-Ilan University. Nude mice (Harlan, Israel) were transferred from ad libitum diet to a more strict diet 2 days before inoculation to lower blood glucose levels, and housed one per cage to ensure an even consumption of food. The diet was comprised of 3 g/mouse/day of standard chow, given at the same time every day. The food was consumed within an average time of 2 hours, consequently the mice were kept without food for the next 22 hours until the daily ration. The mice were kept on this diet throughout the experiment. Mice were inoculated with 1.5×10^6 SW620 CC cells and divided randomly into respective experimental groups. In brief, cells were harvested, counted under the microscope, concentrated by centrifugation (5 min at 500G) and re-suspended in Hank's balanced salt solution (Biological Industries, Israel). Before inoculation the cell suspension was mixed with Martial (BD biosciences, USA) in 1:1 ratio. Four days post-inoculation mice were randomized and placed in cages (n=4 per cage). […]
Mice were sacrificed at day 22 of the xenograft experiments, as described above. […] The serum was analyzed immediately using the Cobas 6000-501 chemistry analyzer (Roche Diagnostics, USA) according to the manufacturer's protocols for each assay.

[4] = tested on: CC cells; experiment: Glycolysis rate (secreted lactate) in CC cells; format: cell-based, human; conditions: 12 h
Procedure: Cells were grown in MEM containing 1 gr/lit glucose or in DMEM with 4.5 gr/lit glucose. Secreted lactate levels were determined using Lactate Colorimetric Assay Kit II according to the manufacturer's protocol (Biovision, USA).

[5] = tested on: SW620 CC cells; experiment: MultiTox-Fluor cytotoxicity assay in SW620 CC cells; format: cell-based, human; conditions: for cell death: 2 μM; for EC50: Homo sapiens, SW-620, read-out: EC50 (cell death)
Procedure: as §1, §2

[6] = tested on: MDA cells; experiment: Autophagy in MDA cells (LC3 immuno-staining); format: cell-based, human; conditions: 2 μM
Procedure: Cells were fixed with 4% paraformaldehyde (30 min) and incubated with Permeabilization Solution containing 0.1% Triton X-100 (Sigma-Aldrich, Israel) in PBS at room temperature for 1 h. Nonspecific binding was blocked with PBS containing 10% fetal bovine serum for 1 h at room temperature. Cells were incubated with specific antibodies diluted 1:100 overnight at 4° C. Cells were washed (5 min) in PBS containing 0.2% Tween-20 (Sigma-Aldrich, Israel) to remove non-specific binding. Bound primary antibodies were detected by Alexa Fluor® 488 goat anti-mouse IgG antibody or Alexa Fluor® 594 goat anti-rabbit IgG antibody (Molecular Probes, Invitrogen, U.K.). Nuclei were visualized by incubation with Hoechst 33342 solution for 10 min (1:500). Nonspecific staining, as determined by binding to the secondary antibody only, was negligible. The immunostained slides were examined under the fluorescence microscope AxioimagerZ1 (Zeiss, Germany) or confocal fluorescence microscope (Olympus-FV1000).

[7] = tested on: SW620 cells; experiment: TUNEL assay in SW620 cells; format: cell-based, human; conditions: 12 h
Procedure: Samples of 1×10^6 cells were inoculated into a 6 well plate containing a cover slip, and fixed for 30 min with 4% paraformaldehyde following adhesion. The cells were then subjected to TUNEL analysis according to manufacturer's instructions (Roche, USA).

[8] = tested on: pancreatic cancer cells (PANC-1); experiment: MultiTox-Fluor cytotoxicity assay in PANC-1 cells; format: cell-based, human; conditions: PANC-1, 24-72 h
Procedure: as §1, §2

Question: `CC(C)c1ccc(-c2cn3nc(N4CCC(CN5CCN(C)CC5)CC4)sc3n2)cc1` [compound 0260, tartarate salt of 6-(4-isopropyl-phenyl)-2-{4-[(4-methyl-piperazin-1-yl)methyl]piperidin-1-yl}-imidazo [2,1-b][1,3,4]thiadiazole] was tested. Which “cell death / cytotoxic effect in normal fibroblasts” value ([1]; 24 h and 48 h, same conditions as SW620) did it give?
Answer: no death was seen; also recorded: Almost no cytotoxic effect

Question: And the “sensitivity of normal cells lower than SW620” value ([1]; Hfb 72 h vs SW620)?
Answer: 50 fold

Question: What about the EC50 ([1]; Homo sapiens, Fibroblast, Hfb, 0-20 μM, 72 h) of the same compound?
Answer: 20000 nM

Question: What about the “effect on cellular ATP level” value [2] of the same compound?
Answer: not seen

Question: What about the tumor histopathology ([3]; SW620 derived tumors dissected at day 22, center and periphery) of the same compound?
Answer: comprised mostly of dead necrotic and un-vascularized tissue

Question: What about the “decrease in average tumor volume” value ([3]; after 22 days of treatment, IP twice a day, restricted diet) of the same compound?
Answer: 10 fold

Question: And the “additional acceleration of glycolytic rate” value ([4]; high glucose concentration)?
Answer: 30%

Question: And the “elevation in the glycolytic rate” value ([4]; high glucose concentration, total)?
Answer: 65%

Question: What about the “acceleration of glycolytic rate” value ([4]; low glucose) of the same compound?
Answer: 35%

Question: What about the cell death ([5]; 24 h, metastatic CC (SW620), 1 gr/l glucose) of the same compound?
Answer: 100%

Question: And the cell death ([5]; 72 h, high glucose concentration)?
Answer: 100%

Question: What about the EC50 ([5]; SW620, 4.5 gr/1 glucose (DMEM)) of the same compound?
Answer: 5100 nM

Question: What about the EC50 ([5]; SW620, 24 h, micellar formulation, 1 gr/l glucose (MEM)) of the same compound?
Answer: 400 nM

Question: And the EC50 ([5]; SW620, 48 h, micellar formulation)?
Answer: 300 nM

Question: What about the “death at the highest dose” value ([5]; SW620, 4.5 gr/1 glucose (DMEM)) of the same compound?
Answer: 50%

Question: And the “autophagy (LC3 immuno-staining)” value [6]?
Answer: induction of autophagy was also observed

Question: What about the “DNA integrity (TUNEL)” value [7] of the same compound?
Answer: did not reveal any effect

Question: And the “concentration efficient in inducing cell death” value [8]?
Answer: ≤ 1.5 µM
